Counter-ions that a name gives are not always drawn.
How the values were obtained:
[1] = test system: Purkinje fiber of the right ventricular free wall (myocardial action potential); experiment: Influence on myocardial action potential duration time (APD75), isolated right ventricular free wall, microelectrode in Purkinje fiber; type: cell-based, dog; settings: Canis lupus familiaris, 20 min, 20 minutes' incubation, (B-A)/A×100, read-out: APD75 (%); for activation at 1 µg/mL: 1.0 μg/ml; for activation at 3 µg/mL: 3.0 μg/ml; for activation at 10 µg/mL: 10.0 μg/ml
[2] = Toxicity test, mortality rate 24 hours after administration; settings: mouse, in vivo
Description: Each of the compounds prepared in the above-mentioned examples was administered into a mouse (ddY strain, male). In each case, oral administration (p.o.) and intra peritoneal administration (i.p.) were separately carried out in a dose of 300 mg/kg and 250 mg/kg, respectively.
A mortality rate (number of specimens: one group=2 to 4 mice) of the mice 24 hours after the administration was calculated, and the results are set forth in Table 3.
Following the same procedure as in Toxicity Test 1, toxicity of the respective compounds prepared in the above examples in Table 5 was tested to calculate a mortality rate of mice.
Administration was made by oral administration (p.o.) in an amount of 300 mg/kg of each compound for one mouse.
Following the same procedure as in Toxicity Test 1, toxicity of the respective compounds prepared in the above examples in Table 7 was tested to calculate a mortality rate of mice.

[3] = test system: ventricular muscle refractory period; experiment: Influence on ventricular muscle refractory period (ERP); type: in vivo, mongrel dog; settings: Canis lupus familiaris, iv, i.v., (W-Y)/Y×100, read-out: ERP (%; extensibility of refractory period)
How it was run: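 Anesthetized (pentobarbital 30 mg/kg i.v.) mongrel dog, compound given i.v. or intraduodenally; right ventricle paced via bipolar electrodes at 400 msec, 4 msec pulses, twice threshold, sinus pacemaker abolished with alcohol. Refractory period taken as shortest inter-train interval (10 msec steps) losing response; ERP (%) = (after − before)/before × 100.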

Q: For `CC(=O)OCCN(CCCc1ccc([N+](=O)[O-])cc1)CCNc1cc(=O)n(C)c(=O)n1C` [Compound 167, 1,3-dimethyl-6-{2-[N-(2-acetoxyethyl)-3-(4-nitrophenyl)propylamino]ethylamino}-2,4(1H,3H)-pyrimidinedione oxalate], which activation at 1 µg/mL [1] is on record?
A: The activation at 1 µg/mL was 16%.

Q: And the activation at 3 µg/mL [1]?
A: The activation at 3 µg/mL was 21%.

Q: And the activation at 10 µg/mL [1]?
A: Its activation at 10 µg/mL is 26%.

Q: What about the mortality at 24 h ([2]; po, 300 mg/kg (p.o.)) of the same compound?
A: The mortality at 24 h was 0%.

Q: What about the change in vivo at 0.1 mg/kg [3] of the same compound?
A: Its change in vivo at 0.1 mg/kg is 8%.

Q: What about the change in vivo at 0.3 mg/kg [3] of the same compound?
A: Its change in vivo at 0.3 mg/kg is 8%.

Q: What about the change in vivo at 1 mg/kg [3] of the same compound?
A: The change in vivo at 1 mg/kg was 15%.

Q: And the change in vivo at 3 mg/kg [3]?
A: The change in vivo at 3 mg/kg was 15%.

Q: Which activation at 3 µg/mL [1] does the source give for `Cn1c(N2CCN(CCCSc3ccc([N+](=O)[O-])cc3)CC2)cc(=O)n(C)c1=O` [Compound 51, 1,3-dimethyl-6-{4-[3-(4-nitrophenylthio)propyl]piperazin-1-yl}-2,4(1H,3H)-pyrimidinedione oxalate] here?
A: Its activation at 3 µg/mL is 33%.

Q: And the mortality at 24 h ([2]; po, 300 mg/kg (p.o.))?
A: Its mortality at 24 h is 0%.

Q: And the change in vivo at 0.1 mg/kg [3]?
A: Its change in vivo at 0.1 mg/kg is 12.6%.

Q: What about the change in vivo at 0.3 mg/kg [3] of the same compound?
A: Its change in vivo at 0.3 mg/kg is 12.6%.

Q: What about the change in vivo at 1 mg/kg [3] of the same compound?
A: The change in vivo at 1 mg/kg was 19%.

Q: With `C=CCOc1cc([N+](=O)[O-])ccc1OCCCN1CCN(c2cc(=O)n(C)c(=O)n2C)CC1` [Compound 161, 1,3-dimethyl-6-{4-[3-(2-allyloxy-4-nitrophenyloxy)propyl]piperazin-1-yl}-2,4(1H,3H)-pyrimidinedione hydrochloride] as the compound, how does the activation at 1 µg/mL [1] read?
A: The activation at 1 µg/mL was 26%.

Q: And the activation at 3 µg/mL [1]?
A: Its activation at 3 µg/mL is 39%.

Q: And the mortality at 24 h ([2]; po, 300 mg/kg (p.o.))?
A: Its mortality at 24 h is 0%.

Q: And the change in vivo at 0.1 mg/kg [3]?
A: The change in vivo at 0.1 mg/kg was 0%.

Q: And the change in vivo at 0.3 mg/kg [3]?
A: Its change in vivo at 0.3 mg/kg is 6.7%.

Q: And the change in vivo at 1 mg/kg [3]?
A: The change in vivo at 1 mg/kg was 6.7%.

Q: What about the change in vivo at 3 mg/kg [3] of the same compound?
A: Its change in vivo at 3 mg/kg is 6.7%.

Q: For `CSc1ccc(OCCCN2CCN(c3cc(=O)n(C)c(=O)n3C)CC2)c([N+](=O)[O-])c1` [Compound 147, 1,3-dimethyl-6-{4-[3-(4-methylthio-2-nitrophenyloxy)propyl]piperazin-1-yl}-2,4(1H,3H)-pyrimidinedione hydrochloride], which activation at 1 µg/mL [1] is on record?
A: Its activation at 1 µg/mL is 14%.

Q: And the activation at 3 µg/mL [1]?
A: The activation at 3 µg/mL was 18%.

Q: What about the mortality at 24 h ([2]; po, 300 mg/kg (p.o.)) of the same compound?
A: Its mortality at 24 h is 0%.

Q: What about the change in vivo at 0.1 mg/kg [3] of the same compound?
A: Its change in vivo at 0.1 mg/kg is 0%.

Q: What about the change in vivo at 0.3 mg/kg [3] of the same compound?
A: The change in vivo at 0.3 mg/kg was 0%.

Q: And the change in vivo at 1 mg/kg [3]?
A: Its change in vivo at 1 mg/kg is 0%.

Q: With `Cn1c(N2CCN(CCCOc3ccc(C(=O)c4ccccc4)cc3[N+](=O)[O-])CC2)cc(=O)n(C)c1=O` [Compound 78, 1,3-dimethyl-6-{4-[3-(4-benzoyl-2-nitrophenoxy)propyl]piperazin-1-yl}-2,4(1H,3H)-pyrimidinedione oxalate] as the compound, how does the activation at 1 µg/mL [1] read?
A: The activation at 1 µg/mL was 19%.

Q: And the activation at 3 µg/mL [1]?
A: Its activation at 3 µg/mL is 42%.

Q: And the mortality at 24 h ([2]; po, 300 mg/kg (p.o.))?
A: The mortality at 24 h was 0%.

Q: What about the change in vivo at 0.1 mg/kg [3] of the same compound?
A: Its change in vivo at 0.1 mg/kg is 6.7%.

Q: What about the change in vivo at 0.3 mg/kg [3] of the same compound?
A: Its change in vivo at 0.3 mg/kg is 13.3%.

Q: And the change in vivo at 1 mg/kg [3]?
A: The change in vivo at 1 mg/kg was 20%.

Q: What about the change in vivo at 3 mg/kg [3] of the same compound?
A: Its change in vivo at 3 mg/kg is 26.7%.

Q: Which activation at 1 µg/mL [1] does the source give for `CCN(CCCc1ccc([N+](=O)[O-])cc1)CCNc1cc(=O)n(C)c(=O)n1C` [Compound 4, 1,3-dimethyl-6-{2-<N-ethyl-N-[3-(4-nitrophenyl)propyl]amino>ethylamino}-2,4(1H,3H)-pyrimidinedione hydrochloride] here?
A: Its activation at 1 µg/mL is 11%.

Q: And the activation at 3 µg/mL [1]?
A: The activation at 3 µg/mL was 16%.

Q: What about the mortality at 24 h ([2]; ip, 250 mg/kg (i.p.)) of the same compound?
A: The mortality at 24 h was 0%.

Q: And the mortality at 24 h ([2]; po, 300 mg/kg (p.o.))?
A: Its mortality at 24 h is 0%.

Q: And the change in vivo at 0.1 mg/kg [3]?
A: Its change in vivo at 0.1 mg/kg is 5.6%.

Q: What about the change in vivo at 0.3 mg/kg [3] of the same compound?
A: Its change in vivo at 0.3 mg/kg is 11.1%.

Q: What about the change in vivo at 1 mg/kg [3] of the same compound?
A: Its change in vivo at 1 mg/kg is 16.7%.

Q: What about the change in vivo at 3 mg/kg [3] of the same compound?
A: Its change in vivo at 3 mg/kg is 16.7%.

Q: Which results are given for `Cn1c(N2CCN(CCc3ccccc3[N+](=O)[O-])CC2)cc(=O)n(C)c1=O` [Compound 10, 1,3-dimethyl-6-{4-[2-(2-nitrophenyl)ethyl]piperazin-1yl}-2,4(1H,3H)-pyrimidinedione oxalate]?
A: activation at 3 µg/mL [1]: 2%; activation at 10 µg/mL [1]: 11%; mortality at 24 h ([2]; po, 300 mg/kg (p.o.)): 0%; change in vivo at 0.1 mg/kg [3]: 6.7%; change in vivo at 0.3 mg/kg [3]: 6.7%; change in vivo at 1 mg/kg [3]: 13.3%; change in vivo at 3 mg/kg [3]: 20%

— patent US5008267A, “Pyrimidinedione compounds, method of producing the same and antiarrythmic agents containing the same” (Mitsui Toatsu Chemicals, Incorporated, priority 1988, dated 1991)
